This note sets out measurements from patent US12139488B2, “Pyrido[3,2-d]pyrimidine compounds uses thereof for treating a proliferative disease” (Universite de Montreal, priority 2021, dated 2024).

Holding throughout (format): cell-based, human
Assay [1] concerns pERK in HepG2 cells (NRAS-Q61L). In words: Phospho-ERK inhibition (AlphaLISA), HepG2. As to conditions: for IC50: HepG2; for HepG2 pERK % Ymin: HepG2, value in parentheses. As to the method:
(§1) All cancer cell lines (A375, A101D, A2058, RKO, HT29 SK-MEL 30, IPC298, HepG2, HCT-116, Lovo, SWV620, SW480, NCI-H358, NCI-H2122, Calu-6, NCIH2087, NCIH1755, NCIH1666 and Mewo) were obtained from ATCC and cultured in RPMI-1640 medium (Gibco) supplemented with 5% heat inactivated fetal bovine serum (FBS, Wisent) at 37° C. under 5% CO2. Cells were maintained in T175 flasks (Greiner). They were passaged by removing the culture medium, washing once in 10 mL of room temperature Phosphate Buffered Saline (PBS; Wisent) and incubating at 37° C. with 2 mL of 0.05% Trypsin (Thermo-Fisher). Trypsin was then inactivated by adding complete growth medium and the cells were then replated in a T175 culture dish at the appropriate dilution. All cell lines were routinely tested for mycoplasma contamination. Tissue type and mutational status of each cell line can be found in Table B.
(§2) AlphaLISA® SureFire® Ultra™ p-ERK 1/2 (Thr202/Tyr204) analysis was conducted on cells plated in 100 μL of complete RPMI-1640 growth medium in 96-well flat-bottomed transparent dishes (Costar) at a density indicated in Table C. Cells were maintained overnight at 37° C. under 5% CO2 before treatment with compounds' dilution series for one hour. The cell density in cells/cm^2 corresponds to cell number divided by the area of one well of a 96-well plate ([…]).
(§3) In a dilution series 100 μL/well of test substance dilution prepared in complete RPMI-1640 growth media was added to the cells. The dilution series is selected so that ten concentrations cover a range from 10 μM to 0.33 nM. If necessary the initial concentration of 10 μM is increased to 100 μM or lowered to 1 μM (as in the case of A375 and H1666 cells, which are generally more sensitive to the compounds) and further dilution is carried out accordingly. The final concentration of DMSO in the assay is set at 0.5%.
(§4) After treatment, media was removed and cells were lysed in 50 μL of 1× AlphaScreen Ultra Lysis Buffer (Perkin Elmer). The AlphaLISA® SureFire® Ultra™ p-ERK 1/2 (Thr202/Tyr2O4) (PerkinElmer) reactions were performed with 5 μL of cell lysate according to the manufacturer's specifications in 384-well proxyplates (Perkin Elmer) followed by overnight incubation of the reactions at room temperature in a humidified chamber. After completion of the reactions, the signals were recorded on an EnVision plate reader (Perkin Elmer) using built in AlphaLISA® settings.
(§5) The effect of each compound dilution on the pERK signal was expressed in % inhibition and calculated as follows. An internal 100% inhibition control ([…] trametinib, cat #HY-10999; MedChem Express; CAS #871700-17-3) was included in each plate and used as a measure of pERK background. First, the value obtained for trametinib was subtracted from each data point. The average of DMSO (vehicle) controls (set as 0% inhibition) was established and used to calculate % inhibition: % inhibition=100*(1-((pERK signalcompound)/(pERK signalDMSO)))
(§6) The ability of each compound to inhibit pERK signal was expressed as an IC50 value obtained by plotting the inhibition values for each data point of a dilution series and fitting the obtained curves using a log(agonist) versus response-variable slope (four parameters) function using GraphPadPrism (V7.0) or Dotmatics Screening Ultra platform.
(§7) When present, paradoxical pERK induction is inferred from the negative % inhibition values observed in the pERK IC50 curves of a compound.
In general terms: In Alpha technology, singlet oxygen from a donor bead excites a nearby acceptor bead.

For assay [2], the system named is pERK in SW620 cells (KRAS-G12V). The assay can be described thus: Phospho-ERK inhibition (AlphaLISA), SW620. Particulars: for SW620 pERK % Ymin: SW620, value in parentheses. As to the method: as §1, §2, §3, §4, §5, §6, §7
Assay [3] deals with pERK in NCIH1755 cells (BRAF G469A). In words: Phospho-ERK inhibition (AlphaLISA), NCIH1755. Particulars: for NCIH1755 pERK % Ymin: NCIH1755, value in parentheses. As to the method: as §1, §2, §3, §4, §5, §6, §7
The subject of another assay is Calu-6 cells (KRAS Q61K). In words: Proliferation inhibition (CellTiter-Glo), Calu-6. As to conditions: Calu6, 3 days, read-out: Calu6 Prolif. EC50. As to the method:
as §1
(§8) CellTiter-Glo® viability analysis was conducted on cells plated in 100 μL of complete RPMI-1640 growth medium in 96-well flat-bottomed white opaque plates (Greiner or Croning) at a density indicated in Table E (for each CCL, number of cells plated per well of a 96-well plate to perform the CellTiter-Glo® cell viability assay). The cell density in cells/cm^2 would correspond to cell number divided by the area of one well of a 96-well plate (0.32 cm^2). […]
(§9) After 3 days of incubation, the growth media were removed by aspiration and 60 μL of diluted CellTiter-Glo® reagent (10 μL CellTiter-Glo® reagent+50 μL of PBS) was added to each well. […] Luminescence signals were then acquired on a Synergy Neo2 plate reader (Biotek).
(§10) The effect of each compound dilution on the proliferation of cancer cell lines was expressed in % inhibition and calculated as follows. […]
(§11) The ability of each compound to inhibit proliferation was expressed as a EC50 value obtained by plotting the effect values for each data point of a dilution series and fitting the obtained curves using a log(agonist) versus response-variable slope (four parameters) function using GraphPadPrism (V7.0) or Dotmatics Screening Ultra platform.
A general note: Cellular ATP, detected with luciferase, serves as a proxy for viable cell number.

A further assay deals with SW480 cells (KRAS G12D). The assay can be described thus: Proliferation inhibition (CellTiter-Glo), SW480. As to conditions: SW480, 3 days, read-out: SW480 Prolif. EC50. As to the method:
as §1, §8, §9, §10, §11

Assay [4] has as its system NCIH2087 cells (BRAF L597V; KRAS Q61K). The assay can be described thus: Proliferation inhibition (CellTiter-Glo), NCIH2087. As to conditions: NCIH2087, 3 days, read-out: NCIH2087 Prolif. EC50. As to the method: as §1, §8, §9, §10, §11

Like-named read-outs stand apart in the source and are kept apart here. Where only a bound is given, the exact number is not on record here.

One may read the IC50 as the concentration needed to halve the response being measured. A low value points to greater potency in that assay. In general, EC50 refers to the midpoint of the concentration-response curve. With `CC1(O)CCN(c2cccc3c2ncn3-c2ccc3ncnc(Nc4c(F)ccc(NS(=O)(=O)c5cccc(Cl)c5Cl)c4F)c3n2)CC1` [Example 524], the half-maximal inhibitory concentration (IC50) in assay [1], in assay [2] (SW620) and in assay [3] (NCIH1755) was 30 to 300 nM throughout. For the same compound, the “HepG2 pERK % Ymin” value in assay [1] is 2%. Also, the “SW620 pERK % Ymin” value in assay [2] is given as −4%. Further, the “NCIH1755 pERK % Ymin” value in assay [3] is given as −13%. In addition, the EC50 is 300 to 3000 nM in the assay on Calu-6 cells (KRAS Q61K), 300 to 3000 nM in the assay with SW480 cells (KRAS G12D) and < 30 nM in assay [4].
Take `Nc1cccc2c1ncn2-c1ccc2ncnc(Nc3c(F)ccc(NS(=O)(=O)c4cccc(Cl)c4Cl)c3F)c2n1` [Example 99]: the IC50 was < 30 nM in assay [1], 30 to 300 nM in assay [2] (SW620) and < 30 nM in assay [3] (NCIH1755). Besides, the “HepG2 pERK % Ymin” value in assay [1] was found to be 7%. Further, in assay [2], the “SW620 pERK % Ymin” value was −11%. In addition, the “NCIH1755 pERK % Ymin” value in assay [3] is listed as −8%. Besides, the concentration for a half-maximal effect (EC50) (in the assay with Calu-6 cells (KRAS Q61K); in the assay with SW480 cells (KRAS G12D); in assay [4]) was 300 to 3000 nM each time.
On to `Cc1ccc2c(Nc3cccc(Cl)c3F)nccc2c1NC(=O)c1csc2c(N)ncnc12` [Belvarafenib, reference compound], for which, in assay [1], the “HepG2 pERK % Ymin” value is −36%. The IC50 lay in the range of 30 to 300 nM in assay [1] (Homo sapiens); 30 to 300 nM in assay [2] (Homo sapiens, SW-620); 30 to 300 nM in assay [3] (Homo sapiens, NCI-H1755). In assay [2], the “SW620 pERK % Ymin” value is on record as −151%. Moreover, the “NCIH1755 pERK % Ymin” value in assay [3] is given as −79%. The EC50 was < 30 nM with Calu-6 cells (KRAS Q61K) (Homo sapiens, Calu-6, 72 h); 300 to 3000 nM in the assay with SW480 cells (KRAS G12D) (Homo sapiens, 72 h); < 30 nM in assay [4] (Homo sapiens, NCI-H2087, 72 h).
